Experiment [1] deals with T1, Coagulation factor XI (Homo sapiens, UniProt P03951). Briefly: Binding affinity to human factor 11a assessed as release of p-nitroaniline after 10 to 120 mins by spectrophotometric analysis.
A further experiment relates to Plasma. Briefly: Anticoagulant activity in human plasma assessed as concentration required to double activated partial thromboplastin time. It counts as functional.
In another experiment the target is Coagulation factor X (Homo sapiens, UniProt P00742). Nature of the experiment: Binding affinity to human factor 10a assessed as release of p-nitroaniline after 10 to 120 mins by spectrophotometric analysis.
The target in the next experiment is T2, Coagulation factor VII (Homo sapiens, UniProt P08709).
T2 sequence (P08709 whole entry): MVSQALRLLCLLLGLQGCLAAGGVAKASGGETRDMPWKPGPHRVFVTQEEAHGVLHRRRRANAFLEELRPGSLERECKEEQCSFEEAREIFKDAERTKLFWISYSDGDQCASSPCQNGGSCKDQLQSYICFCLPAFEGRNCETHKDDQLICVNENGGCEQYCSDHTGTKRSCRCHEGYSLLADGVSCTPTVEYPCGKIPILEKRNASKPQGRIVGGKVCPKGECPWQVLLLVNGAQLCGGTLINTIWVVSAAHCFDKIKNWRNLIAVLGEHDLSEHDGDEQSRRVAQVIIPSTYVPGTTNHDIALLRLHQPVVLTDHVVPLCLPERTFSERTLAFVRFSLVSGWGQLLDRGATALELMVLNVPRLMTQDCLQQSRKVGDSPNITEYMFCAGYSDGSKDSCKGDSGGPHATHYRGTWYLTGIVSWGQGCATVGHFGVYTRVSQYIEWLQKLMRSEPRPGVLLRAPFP
Briefly: Binding affinity to human factor 7a assessed as release of p-nitroaniline after 10 to 120 mins by spectrophotometric analysis.

For experiment [2], the species on record is Homo sapiens. Nature of the experiment: Selectivity ratio of Ki for human factor 10a to Ki for human factor 11a.
The species named for experiment [3] is Homo sapiens. Briefly: Selectivity ratio of Ki for human factor 7a to Ki for human factor 11a.
A further experiment deals with Oryctolagus cuniculus. Briefly: Antithrombotic activity in rabbit arteriovenous-shunt thrombosis model assessed as inhibition of clot formation compound administered as single bolus dose followed by five continuous infusion dose. The format is functional.
Experiment [4] has as its target T1, Coagulation factor XI. Nature of the experiment: Mixed-type inhibition of human factor 11a.
In experiment [5] the target is T1, Coagulation factor XI. Nature of the experiment: Competitive inhibition of human factor 11a assessed as release of p-nitroaniline after 10 to 120 mins by Michaelis-Menten equation analysis.

Active and inactive are the calls of the source. The rule behind the calls is not given here.

T1 sequence (P03951 19-387 limits assumed): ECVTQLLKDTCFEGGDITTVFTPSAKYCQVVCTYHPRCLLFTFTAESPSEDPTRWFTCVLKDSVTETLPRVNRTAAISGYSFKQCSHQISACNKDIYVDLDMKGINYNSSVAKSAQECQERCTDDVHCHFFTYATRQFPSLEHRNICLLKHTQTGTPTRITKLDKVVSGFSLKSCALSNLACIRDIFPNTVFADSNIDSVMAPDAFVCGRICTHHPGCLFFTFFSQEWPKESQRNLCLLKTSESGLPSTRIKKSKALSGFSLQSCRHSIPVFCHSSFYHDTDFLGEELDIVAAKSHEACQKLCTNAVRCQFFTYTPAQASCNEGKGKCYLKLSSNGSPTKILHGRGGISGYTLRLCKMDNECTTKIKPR
T1 sequence (P03951 388-625 limits assumed): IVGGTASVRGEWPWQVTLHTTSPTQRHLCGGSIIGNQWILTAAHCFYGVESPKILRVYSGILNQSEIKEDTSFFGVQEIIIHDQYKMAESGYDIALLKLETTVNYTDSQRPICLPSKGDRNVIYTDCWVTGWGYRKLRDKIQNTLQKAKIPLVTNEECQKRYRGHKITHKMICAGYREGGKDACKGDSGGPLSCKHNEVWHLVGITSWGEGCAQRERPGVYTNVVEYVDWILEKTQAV
Chain of Coagulation factor X (P00742 41-179 limits assumed): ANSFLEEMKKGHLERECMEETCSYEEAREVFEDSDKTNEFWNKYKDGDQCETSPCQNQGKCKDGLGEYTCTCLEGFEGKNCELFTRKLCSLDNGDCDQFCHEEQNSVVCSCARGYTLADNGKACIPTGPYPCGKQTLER
Chain of Coagulation factor X (P00742 235-488 limits assumed): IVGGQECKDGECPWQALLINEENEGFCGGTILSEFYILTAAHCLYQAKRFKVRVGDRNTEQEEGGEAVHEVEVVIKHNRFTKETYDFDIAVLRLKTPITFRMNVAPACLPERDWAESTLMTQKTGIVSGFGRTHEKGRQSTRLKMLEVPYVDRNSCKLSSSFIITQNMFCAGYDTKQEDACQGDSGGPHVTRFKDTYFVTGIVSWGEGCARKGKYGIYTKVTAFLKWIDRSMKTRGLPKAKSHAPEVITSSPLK

One may read the Ki as a dissociation constant, usually derived from enzyme kinetics or from competition with a known ligand. Consider `CCCC(=O)Nc1cc(-c2ccc(C(N)=O)cc2C(=O)O)cc([C@@H]2C[C@](C)(c3ccccc3)c3cc(C(=N)N)ccc3N2)c1` (racemic), for which the Ki at Coagulation factor XI [1] stood at 0.3 nM; on Coagulation factor X, 641 nM; at Coagulation factor VII, 520 nM. Further, the EC in the experiment on Plasma was found to be 4.1 µM.

In the case of `CC(=O)Nc1cc(-c2ccc(C(N)=O)cc2C(=O)O)cc([C@@H]2C[C@](C)(c3ccccc3)c3cc(C(=N)N)ccc3N2)c1` (racemic), the inhibition constant (Ki) at Coagulation factor XI [1] was found to be 1 nM; at Coagulation factor X, 1810 nM; on Coagulation factor VII, 230 nM. Further, the EC with Plasma is 2.1 µM.

As for `N=C(N)c1ccc2c(c1)[C@@H](c1ccccc1)C[C@@H](c1ccccc1-c1ccccc1C(=O)O)N2` (racemic), the Ki at Coagulation factor XI [1] stood at 110 nM; at Coagulation factor X it was 1940 nM; at Coagulation factor VII, 2200 nM.

On to `C[C@]1(c2ccccc2)C[C@@H](c2cccc(-c3ccc(C#N)cc3C(=O)O)c2)Nc2ccc(C(=N)N)cc21` (racemic), for which the values for the Ki on Coagulation factor XI [1], at Coagulation factor X and at Coagulation factor VII were 48 nM, 2060 nM and 867 nM, respectively.

Turning to `CC1(c2ccccc2)CC(c2cccc(-c3ccc(C(N)=O)cc3C(=O)O)c2)Nc2ccc(C(=N)N)cc21` (single isomer, unassigned; (+)) [listing 1 of 2 here], the Ki was determined as 0.39 nM at Coagulation factor XI [1], 2330 nM at Coagulation factor X and 86 nM at Coagulation factor VII.

Take `CC1(c2ccccc2)CC(c2cccc(-c3ccc(C(N)=O)cc3C(=O)O)c2)Nc2ccc(C(=N)N)cc21` (single isomer, unassigned; (+)) [listing 2 of 2 here]: the Ratio Ki is over 1000 in the experiment filed under Homo sapiens [2] and 200 in the experiment filed under Homo sapiens [3].

On to `CN(C)Cc1ccc(-c2cccc([C@@H]3C[C@](C)(c4ccccc4)c4cc(C(=N)N)ccc4N3)c2)c(C(=O)O)c1` (racemic), for which the values for the Ki on Coagulation factor XI [1], on Coagulation factor X and at Coagulation factor VII were 466 nM, over 15000 nM and 610 nM, respectively.

Consider `C[C@]1(c2ccccc2)C[C@@H](c2cccc(-c3ccccc3C(=O)O)c2)Nc2ccc(C(=N)N)cc21` (racemic), for which the Ki amounted to 110 nM on Coagulation factor XI [1], 6700 nM on Coagulation factor X and 3060 nM at Coagulation factor VII.

As to `CC(C)(C)NC(=O)c1ccc(-c2cccc([C@@H]3C[C@](C)(c4ccccc4)c4cc(C(=N)N)ccc4N3)c2)c(C(=O)O)c1` (racemic), the Ki stood at 540 nM on Coagulation factor XI [1], 6400 nM on Coagulation factor X and 1290 nM on Coagulation factor VII.

For `CCC[C@]1(c2ccccc2)C[C@@H](c2cccc(-c3ccc(C(=O)O)cc3C(=O)O)c2)Nc2ccc(C(=N)N)cc21` (racemic), on Coagulation factor XI [1], the Ki was 1960 nM.

Regarding `CC(C)CC(=O)Nc1cc(-c2ccc(C(N)=O)cc2C(=O)O)cc([C@@H]2C[C@](C)(c3ccccc3)c3cc(C(=N)N)ccc3N2)c1` (racemic), the Ki on Coagulation factor XI [1] amounted to 0.59 nM; at Coagulation factor X, 784 nM; at Coagulation factor VII, 1010 nM. Besides, the EC with Plasma stood at 6.1 µM.

For the compound `CC1(c2ccccc2)CC(c2cccc(-c3ccc(C(N)=O)cc3C(=O)O)c2)Nc2ccc(C(=N)N)cc21` (single isomer, unassigned; enantiomer 2), the Ki is 335 nM at Coagulation factor XI [1], over 15000 nM at Coagulation factor X and over 15000 nM on Coagulation factor VII.

With `C[C@]1(c2ccccc2)C[C@@H](c2cc(NC(=O)C3CC3)cc(-c3ccc(C(N)=O)cc3C(=O)O)c2)Nc2ccc(C(=N)N)cc21` (racemic), the Ki at Coagulation factor XI [1] was 0.72 nM; at Coagulation factor X, 880 nM; at Coagulation factor VII it was 474 nM. Further, in the experiment with Plasma, the EC was 4.5 µM.

Turning to `COC(=O)c1ccc(-c2cccc([C@@H]3C[C@](C)(c4ccccc4)c4cc(C(=N)N)ccc4N3)c2)c(C(=O)O)c1` (racemic), the Ki worked out at 79 nM at Coagulation factor XI [1], 606 nM on Coagulation factor X and 442 nM at Coagulation factor VII.

For the compound `C[C@]1(c2ccccc2)C[C@@H](c2cccc(-c3ccc(N)cc3C(=O)O)c2)Nc2ccc(C(=N)N)cc21` (racemic), the Ki on Coagulation factor XI [1] was 64 nM; at Coagulation factor X it was 3980 nM; on Coagulation factor VII it was 275 nM.

`CNC(=O)c1ccc(-c2cccc([C@@H]3C[C@](C)(c4ccccc4)c4cc(C(=N)N)ccc4N3)c2)c(C(=O)O)c1` (racemic): the Ki is 154 nM on Coagulation factor XI [1], 4100 nM at Coagulation factor X and 1960 nM on Coagulation factor VII.

Turning to `CC(=O)Nc1ccc(-c2cccc([C@@H]3C[C@](C)(c4ccccc4)c4cc(C(=N)N)ccc4N3)c2)c(C(=O)O)c1` (racemic), the Ki at Coagulation factor XI [1] amounted to 110 nM; on Coagulation factor X, 5810 nM; at Coagulation factor VII, 705 nM.

As to `C[C@]1(c2ccccc2)C[C@@H](c2cccc(-c3ccc(NS(C)(=O)=O)cc3C(=O)O)c2)Nc2ccc(C(=N)N)cc21` (racemic), the figures for the Ki at Coagulation factor XI [1], at Coagulation factor X and at Coagulation factor VII were 37 nM, over 15000 nM and 237 nM, respectively.

Take `N=C(N)c1ccc2c(c1)[C@@H](c1ccccc1)C[C@@H](c1cc(N)cc(-c3ccccc3C(=O)O)c1)N2` (racemic): the Ki on Coagulation factor XI [1] came out at 7.6 nM; on Coagulation factor X, 57 nM; at Coagulation factor VII it was 41 nM.

Take `C[C@]1(c2ccccc2)C[C@@H](c2cccc(-c3ccc(C(=O)O)cc3C(=O)O)c2)Nc2ccc(C(=N)N)cc21` (racemic): the results for the Ki on Coagulation factor XI [1], at Coagulation factor X and at Coagulation factor VII were 61 nM, 9300 nM and 2600 nM, respectively.

`N=C(N)c1ccc2c(c1)[C@@H](c1ccccc1)C[C@@H](c1ccccc1-c1ccc(C(=O)O)cc1C(=O)O)N2` (racemic): the Ratio Ki in the experiment filed under Homo sapiens [2] came to 100; in the experiment listed under Homo sapiens [3] it was 30. Besides, the values for the Ki at Coagulation factor XI [1], on Coagulation factor X and on Coagulation factor VII were 8.5 nM, 970 nM and 290 nM, respectively.

For the compound `CCC(=O)Nc1cc(-c2ccc(C(N)=O)cc2C(=O)O)cc([C@@H]2C[C@](C)(c3ccccc3)c3cc(C(=N)N)ccc3N2)c1` (racemic), the Ki at Coagulation factor XI [1] turned out to be 0.69 nM; at Coagulation factor X, 1480 nM; on Coagulation factor VII it was 450 nM. In addition, the EC in the experiment on Plasma was 3.4 µM.

Consider `C[C@]1(c2ccccc2)C[C@H](c2cccc(-c3ccc(C(N)=O)cc3C(=O)O)c2)Nc2ccc(C(=N)N)cc21` (racemic), for which the Ki on Coagulation factor XI [1] is 26 nM; on Coagulation factor X, 8350 nM; on Coagulation factor VII it was 16300 nM.

Take `N=C(N)c1ccc2c(c1)[C@@H](c1ccccc1)C[C@@H](c1cccc(-c3ccc(C(=O)O)cc3C(=O)O)c1)N2` (racemic): the Ratio Ki in the experiment listed under Homo sapiens [2] is 30; in the experiment listed under Homo sapiens [3] it was 20. In addition, the Ki on Coagulation factor XI [1] was determined as 3.9 nM; on Coagulation factor X, 130 nM; on Coagulation factor VII, 89 nM.

Consider `N=C(N)c1ccc2c(c1)[C@@H](c1ccccc1)C[C@@H](c1ccccc1-c1ccc(C(=O)O)cc1)N2` (racemic), for which the Ki on Coagulation factor XI [1] was found to be 2400 nM.

As for `CC[C@]1(c2ccccc2)C[C@@H](c2cccc(-c3ccc(C(=O)O)cc3C(=O)O)c2)Nc2ccc(C(=N)N)cc21` (racemic), on Coagulation factor XI [1], the Ki worked out at 830 nM.

With `C[C@]1(c2ccccc2)C[C@@H](c2cccc(-c3ccc(C(N)=O)cc3C(=O)O)c2)Nc2ccc(C(=N)N)cc21` (racemic), the Ki on Coagulation factor XI [1] worked out at 1.5 nM; at Coagulation factor X, 3000 nM; on Coagulation factor VII, 280 nM. For the same compound, the EC in the experiment with Plasma was 8.6 µM.

Take `CC(C)NC(=O)c1ccc(-c2cccc([C@@H]3C[C@](C)(c4ccccc4)c4cc(C(=N)N)ccc4N3)c2)c(C(=O)O)c1` (racemic): the Ki on Coagulation factor XI [1] was found to be 207 nM; on Coagulation factor X, 1310 nM; at Coagulation factor VII it was 1770 nM.

Take `CC(C)CC(=O)Nc1cc(-c2ccc(C(N)=O)cc2C(=O)O)cc(C2CC(C)(c3ccccc3)c3cc(C(=N)N)ccc3N2)c1` (single isomer, unassigned; enantiomer 1): the results for the Ki at Coagulation factor XI [1], on Coagulation factor X and at Coagulation factor VII were 230 nM, 5670 nM and over 10900 nM, respectively.

As to `C[C@]1(c2ccccc2)C[C@@H](c2cc(N)cc(-c3ccc(C(N)=O)cc3C(=O)O)c2)Nc2ccc(C(=N)N)cc21` (racemic), the results for the Ki on Coagulation factor XI [1], on Coagulation factor X and on Coagulation factor VII were 0.64 nM, 2250 nM and 56 nM, respectively. The EC with Plasma was found to be 1.2 µM.

For the compound `CNC(=O)Nc1ccc(-c2cccc([C@@H]3C[C@](C)(c4ccccc4)c4cc(C(=N)N)ccc4N3)c2)c(C(=O)O)c1` (racemic), the Ki was found to be 15 nM at Coagulation factor XI [1], 1140 nM on Coagulation factor X and 451 nM on Coagulation factor VII.

For the compound `CC(C)CC(=O)Nc1cc(-c2ccc(C(N)=O)cc2C(=O)O)cc(C2CC(C)(c3ccccc3)c3cc(C(=N)N)ccc3N2)c1` (single isomer, unassigned; enantiomer 2), the inhibition entry with Oryctolagus cuniculus was “Dose-dependent effect”. In addition, the inhibition entry on Coagulation factor XI [4] and on Coagulation factor XI [5] was “Active” throughout.

For the compound `CC(C)CNC(=O)c1ccc(-c2ccccc2[C@@H]2C[C@H](c3ccccc3)c3cc(C(=N)N)ccc3N2)c(C(=O)O)c1` (racemic), the results for the Ratio Ki in the experiment listed under Homo sapiens [2] and in the experiment listed under Homo sapiens [3] were 40 and 4, respectively. The values for the Ki at Coagulation factor XI [1], on Coagulation factor X and at Coagulation factor VII were 25 nM, 1100 nM and 95 nM, respectively.

On to `CC(C)CNC(=O)c1ccc(-c2cccc([C@@H]3C[C@H](c4ccccc4)c4cc(C(=N)N)ccc4N3)c2)c(C(=O)O)c1` (racemic), for which the Ki amounted to 23 nM on Coagulation factor XI [1], 24 nM at Coagulation factor X and 25 nM on Coagulation factor VII.

The values are drawn from ChEMBL document CHEMBL3124891, “Tetrahydroquinoline derivatives as potent and selective factor XIa inhibitors” (J Med Chem, 2014).
